Source: patent US20050238734A1, “Detection of nitrosylated proteins” (University of Vermont and State Agricultural College, priority 2004, published 2005)

Columns and labels:
RanGTPase [1] = target: T1, RanGTPase (Mus musculus, UniProt P62827); assay: Biotin derivatization of RanGTPase, immunoprecipitation, Western blot with streptavidin-HRP; type: cell-based; conditions: after treatment of cells, versus basal
T1 construct: Ran was immunoprecipitated from equivalent amounts of total cell lysates; endogenous in cells; host or cells: C10 mouse lung alveolar type II epithelial cells
Protocol: Biotin labeling of S-nitrosylated proteins in cell lysates proceeded as follows. At selected time points, cells were rinsed with PBS containing 0.1 mM EDTA and 0.01 mM neocuproine and lysed in HEN buffer containing 0.1% SDS, 0.5% CHAPS, and 20 mM NEM (N-ethylmaleimide) by rocking for 30 minutes at 4° C. The lysates were centrifuged at 14,000 g at 4° C. for about 10 minutes, and the excess NEM used to block sulfhydryl groups (SH) was removed by protein precipitation with acetone. The pellets were resuspended in HEN buffer containing 1% SDS (HENS), and the S-nitrosothiols were reduced and biotinylated by the simultaneous addition of 10 mM sodium ascorbate and 0.05 mM of the sulfhydryl-specific biotinylating agent, MPB (N-(3-maleimidylpropionyl) biocytin, Molecular Probes), for 1 hour at room temperature (RT, about 25° C.). […] Biotinylation of Ran was detected using streptavidin-HRP. […]
To confirm that RanGTPase itself was S-nitrosylated, a biotin derivatization approach was used, including immunoprecipitating RanGTPase and determining biotinylated RanGTPase by Western blotting using streptavidin-HRP. […] Ran was immunoprecipitated from total cell lysates, and biotinylated RanGTPase was determined by Western blotting and by peroxidase-conjugated streptavidin (FIG. 7C, upper panel). […] In the lower panel of FIG. 7C, as a loading control, Ran was detected in whole cell lysates by Western blotting.

lungs of Balb/c mice = assay: Detection of S-nitrosylated proteins in frozen lung sections after intratracheal administration; type: in vivo, mouse; conditions: 50 microliters of 10 mM intratracheally, about 2 hours, versus PBS
[2] = tested on: Mouse lung epithelial (C10) cells; assay: NO/S-nitrosothiol content of cell lysates by chemiluminescence; type: cell-based; conditions: 1 mM GSNO, about one hour
Protocol: A line of spontaneously transformed mouse lung alveolar type II epithelial cells (C10) was used in some experiments, as described below. […] In experiments involving microscopic analysis, the cells were grown on glass cover slips. At about one hour prior to exposure to a test agent, the medium was switched to phenol red free DMEM/F12 containing 0.5% FBS. Some cells were exposed to S-nitroso-glutathione (GSNO) or S-nitroso-N-acetyl penicillamine (SNAP) for about 1 hour, in the presence of an equimolar concentration of freshly prepared L-cysteine. To monitor S-nitrosylation in response to NOS2 activation, the cells were treated with 10 ng/ml TNF alpha (TNFα) and 100 U/ml interferon gamma (IFNγ), for about 24 hours. […] S-nitrosothiols were detected in cell lysates or immunoprecipitated protein by chemiluminescence, using a nitric oxide analyzer (Ionics, Boulder, Colo.). […] In order to eliminate the contribution of nitrites to the observed photoelectric signal, the cell lysates were incubated with a nitrite quencher, sulfanilamide, and assessed the sulfanilamide resistant NO signal by chemiluminescence. Under these experimental conditions, employing 12 micrograms of protein, S-nitrosthiol was not detected in the sham controls (<5 pmol), but a sulfamilamide-resistant NO signal was detected in lysates from cells treated with GSNO.

RanGTPase [3] = target: T1, RanGTPase; assay: SNO content of immunoprecipitated RanGTPase by chemiluminescence; type: cell-based; conditions: 1 mM, about 1 hour
Protocol: S-nitrosothiols were detected in cell lysates or immunoprecipitated protein by chemiluminescence, using a nitric oxide analyzer (Ionics, Boulder, Colo.). Cell lysates were incubated for about 15 minutes in the presence or absence of sulfanilamide (0.5%).
Ran was immunoprecipitated from equivalent amounts of total cell lysates, using a Ran goat polyclonal IgG (Santa Cruz) and protein G-agarose beads. The immunoprecipitates were washed three times with HEN buffer (25 mM HEPES, pH 7.7, 0.1 mM EDTA, 0.01 mM neocuproine) and the immunocomplexes were injected into the purge vessel for NO analysis.
Chemiluminescence was first performed to detect the S-nitrosylation of immunoprecipitated RanGTPase. […] In these experiments, the cells were treated with 1 mM GSNO for about 1 hour, washed, and Ran was immunoprecipitated form the total lysate using a Ran-specific antibody and protein G agarose beads. The immunocomplexes were washed three times and directly injected into the purge vessel using techniques similar to those described in Example 1. As a control, pre-immune IgG was used instead of Ran antibody. Western blot analysis confirmed the presence of RanGTPase in the immunocomplexes (FIG. 7B).

C10 cells = assay: In situ detection of S-nitrosylated proteins in intact cells (biotin derivatization, streptavidin-FITC, confocal microscopy); type: cell-based, mouse; conditions: 1 mM, 1 hour
Protocol: A line of spontaneously transformed mouse lung alveolar type II epithelial cells (C10) was used in some experiments, as described below. C10 cells were cultured in CMRL1066 medium containing 10% fetal bovine serum (FBS, GIBCO). In experiments involving microscopic analysis, the cells were grown on glass cover slips. At about one hour prior to exposure to a test agent, the medium was switched to phenol red free DMEM/F12 containing 0.5% FBS. Some cells were exposed to S-nitroso-glutathione (GSNO) or S-nitroso-N-acetyl penicillamine (SNAP) for about 1 hour, in the presence of an equimolar concentration of freshly prepared L-cysteine. To monitor S-nitrosylation in response to NOS2 activation, the cells were treated with 10 ng/ml TNF alpha (TNFα) and 100 U/ml interferon gamma (IFNγ), for about 24 hours. Incubation with L-N-monomethyl arginine (L-NMMA) for about 16 hours was used to inhibit endogenous NO production and D-NMMA (D-N-monomethyl arginine) was used as a control. Nuclear export was blocked by leptomycin B (5 ng/ml, exposure for about 12 hours). All experiments were performed in duplicate and were repeated at least three times.
To evaluate the localization of S-nitrosylated proteins in intact cells, the biotin derivatization method described above was used in combination with fluorophore labeling and visualized using confocal microscopy. Cells grown on cover slips were rinsed with PBS containing 0.1 mM EDTA and 0.01 mM neocuproine, and fixed in 4% PFA (paraformaldehyde) for 20 minutes at RT. The cells were permeabilized, and protein SH groups were blocked using HEN buffer containing 2.5% SDS, 0.5% CHAPS, and 20 mM MMTS (methylmethanethiosulfonate) for 20 min at 55° C. with constant shaking. After removal of MMTS, the cells were incubated with 1 mM sodium ascorbate and 0.4 mM biotin-HPDP (N-[6-(biotinamido)hexyl]-3′-(2′-pyridyldithio)propionamide) for about an hour at RT, and the cover slips were then incubated overnight with streptavidin-FITC at 4° C. Blocking was performed using 20 mM NEM for 30 minutes at 4° C., followed by incubation with 0.05 mM MPB and 1 mM sodium ascorbate for 1 hour at RT. The nuclei were stained with 10 microgram/ml PI (propidium iodide) for 30 minutes at RT. The cells were analyzed by confocal microscopy (magnification 40×) using an Olympus BX50 microscope coupled to a Bio-Rad (Hercules Calif.) MRC 1024 confocal scanning laser microscope system. Control experiments were also performed in which blocking of SH groups was omitted, or in which 100 micromolar HgCl2 was added prior to blocking of SH groups with MMTS or NEM. To assess the contribution of endogenous biotinylated proteins, the biotin-label was omitted in some control cover slips. All manipulations were performed in the dark. […]

biotinylation of RanGTPase (RanGTPase [1]): enhanced | SNO content of immunoprecipitated RanGTPase (RanGTPase [3]): increase
SMILES: N[C@@H](CCC(=O)N[C@@H](CSN=O)C(=O)NCC(=O)O)C(=O)O [GSNO, S-nitroso-glutathione]
biotin reactivity (S-nitrosylated proteins) in lungs (lungs of Balb/c mice): markedly increased | sulfanilamide-resistant NO signal (S-nitrosothiol) in lysates ([2]; 12 micrograms of protein): detected | total NO content in lysates ([2]; versus non-treated cells): increased | biotinylation (S-nitrosylated proteins) in intact cells (C10 cells): enhanced
